# Source: patent US20220072324A1, “METHOD AND SYSTEM FOR APPLYING PULSED ELECTRIC FIELDS WITH HIGH […] MAGNETIC CORES” (Board of Supervisors of Louisiana State University and …, priority 2018, published 2022)
# Tested on: mouse breast cancer 4T1 cells xenografts
# Assay: In vivo validation of Targeted Osmotic Lysis (TOL) in a breast cancer mouse model
# Parameters: species or system BALBc mice
# Details: TOL: 7 mg/kg digoxin s.c. five times at 1 hr intervals plus pulsed magnetic fields from toroid device for 30 min, day 0 and day 1; versus control groups; FIG. 9
# Procedure: FIG. 9 depicts in vivo validation of the therapeutic efficacy of pulsed magnetic fields inducing osmotic lysis in a breast cancer mouse model. Four groups of female, immune competent BALBc mice (n=8) with xenografts (0.7-1.2 cm diameter lower back) were established after injection of 500K highly malignant mouse breast cancer 4T1 cells in 7 mg/kg digoxin or saline (s.c. back of neck) five times at 1 hr intervals. This protocol establishes steady-state pharmacokinetics in even poorly vascularized tissues. The mice were exposed to the pulsed magnetic fields generated by a toroid device, for 30 min starting 15 min after the last injection. This treatment was administered on day 0 (first day of treatment), and on day 1. Mice were monitored for tumor growth and were sacrificed when they met the NIH criteria for humane endpoint euthanasia.
compound,measurement,value
C[C@H]1O[C@@H](O[C@H]2[C@@H](O)C[C@H](O[C@H]3[C@@H](O)C[C@H](O[C@H]4CC[C@@]5(C)[C@H](CC[C@@H]6[C@@H]5C[C@@H](O)[C@]5(C)[C@@H](C7=CC(=O)OC7)CC[C@]65O)C4)O[C@@H]3C)O[C@@H]2C)C[C@H](O)[C@@H]1O [digoxin],time until mice reached humane endpoint euthanasia criteria,significantly longer than mice in the control groups
